The target of one experiment is T1, LRH-1 LBD (Homo sapiens, UniProt O00482).
T1 construct: LRH-1 LBD (residues 299-541) in the pMSC7 vector was expressed in BL21 (DE3) pLysS E. coli; made in house; host or cells: E. coli BL21 (DE3) pLysS
As to the kind of experiment: Thermofluor (DSF) assay, purified LRH-1 LBD-His protein. In kind it is binding. To be noted: 50 μM compound, relative to DLPC-bound LRH-1; for ΔTm at 50 µM: read-out: ΔTm (mean +/− SEM) (° C.). As for the experimental part:
Thermofluor assays—Purified LRH-1 LBD-His protein (0.2 mg/ml) was incubated overnight with 50 μM of each compound at 4° C. The final DMSO concentration in the reactions was 1%. SYPRO orange dye (Invitrogen) was then added at a 1:1000 dilution. Reactions were heated at a rate of 0.5° C. per minute, using a StepOne Plus Real Time PCR System (ThermoFisher). […] Data were analyzed by first subtracting baseline fluorescence (ligands+SYPRO with no protein) and then fitting the curves using the Bolzman equation (GraphPad Prism, v6) to determine the Tm. […]

The next experiment deals with T2, LRH-1 (Homo sapiens, UniProt O00482).
T2 construct: The transfected plasmids included full-length LRH-1 in a pCI vector; expressed in transfected cells; host or cells: HeLa
The experiment is described as follows: Luciferase reporter assay (SHP-luc) in HeLa cells transfected with full-length LRH-1. In kind it is cell-based. Conditions: for Relative Efficacy: fold increase over baseline (DMSO-treated cells) relative to the fold increase induced by RJW100; for EC50 / EC50 (μM): HeLa cells, SHP-luc reporter, 24 hours, 0.03-30 μM. As for the experimental part:
EC50 and Relative Activity values were calculated from luciferase reporter assays.
For orientation: In a reporter assay the amount or activity of a reporter protein is the signal.

T2 sequence (O00482 whole entry): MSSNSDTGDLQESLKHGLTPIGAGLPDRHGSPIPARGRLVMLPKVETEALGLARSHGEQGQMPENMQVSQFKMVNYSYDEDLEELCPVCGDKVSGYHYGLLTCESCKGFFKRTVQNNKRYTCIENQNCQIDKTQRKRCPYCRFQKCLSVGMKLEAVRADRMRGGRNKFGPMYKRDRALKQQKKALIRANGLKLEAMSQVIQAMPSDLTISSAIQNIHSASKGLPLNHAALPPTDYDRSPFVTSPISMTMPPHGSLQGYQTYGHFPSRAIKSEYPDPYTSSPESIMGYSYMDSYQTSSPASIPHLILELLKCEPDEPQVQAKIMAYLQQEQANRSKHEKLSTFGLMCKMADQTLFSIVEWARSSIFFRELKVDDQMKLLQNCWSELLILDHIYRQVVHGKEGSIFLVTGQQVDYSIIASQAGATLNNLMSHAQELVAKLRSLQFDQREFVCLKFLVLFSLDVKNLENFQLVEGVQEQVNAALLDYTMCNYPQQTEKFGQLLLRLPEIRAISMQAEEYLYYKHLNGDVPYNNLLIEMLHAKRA
T1 sequence (O00482 299-541): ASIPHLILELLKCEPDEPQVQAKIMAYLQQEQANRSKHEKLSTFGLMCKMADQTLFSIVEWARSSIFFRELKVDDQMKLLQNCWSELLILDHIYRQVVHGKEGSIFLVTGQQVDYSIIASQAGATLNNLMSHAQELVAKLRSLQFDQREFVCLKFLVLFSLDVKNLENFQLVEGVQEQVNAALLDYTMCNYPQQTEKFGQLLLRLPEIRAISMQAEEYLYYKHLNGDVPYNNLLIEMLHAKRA

For `C=C(c1ccccc1)C12CCC(N)C1CC(CCCCCC)=C2c1ccccc1` (stereo not drawn) [Compound 33-endo, (Endo or Exo)-5-hexyl-4-phenyl-3a-(1-phenylvinyl)-1,2,3,3a, 6,6a-hexahydropentalen-1-amine], the “ΔTm (mean +/− SEM) (° C.)” value at LRH-1 LBD is recorded as “ns (Ns = Tm changes were less than 1° C.)”. In addition, on LRH-1, the “Relative Efficacy” value was determined as 0.56.

As to `C=C(c1ccccc1)C12CC(O)C(O)C1CC(CCCCCC)=C2c1ccccc1` (stereo not shown) [Compound 52, 5-hexyl-4-phenyl-3a-(1-phenylvinyl)-1,2,3,3a,6,6a-hexahydropentalene-1,2-diol], at LRH-1, the EC50 (as a rule, the concentration giving half of the maximal effect) came to 10 nM and the “Relative Efficacy” value is given as −0.25.

As to `C=C(c1ccccc1)[C@@]12CC[C@H](NC(N)=O)C1CC(CCCCCC)=C2c1ccccc1` (stereo partly drawn) [Compound 36-endo, 1-((endo or exo)-5-hexyl-4-phenyl-3a-(1-phenylvinyl)-1,2,3,3a, 6,6a-hexahydropentalen-1-yl) urea], the ΔTm at 50 µM at LRH-1 LBD was found to be 1.1 °C.

In the case of `C=C(c1ccccc1)[C@@]12CC[C@@H](O)[C@@H]1CC(CCCCCCCCO)=C2c1ccccc1` (relative stereo) [Compound 9e, Exo-5-(8-hydroxyoctyl)-4-phenyl-3a-(1-phenylvinyl)-1,2,3,3a,6,6a-hexahydropentalen-1-ol], on LRH-1 LBD, the ΔTm at 50 µM came out at 4 °C. For the same compound, at LRH-1, the EC50 was 700 nM and the “Relative Efficacy” value amounted to 1.52.

Consider `C=C(c1ccccc1)[C@@]12CC[C@H](N=[N+]=[N-])C1CC(CCCCCC)=C2c1ccccc1` (stereo partly drawn) [Compound 31-endo, (Endo or Exo)-5-hexyl-4-phenyl-3a-(1-phenylvinyl)-1,2,3,3a,6,6a-hexahydropentalen-1-azide], for which the ΔTm at 50 µM at LRH-1 LBD is less than 1 °C. On LRH-1, the EC50 came to 5000 nM and the “Relative Efficacy” value is 0.70.

As to `C=C(c1ccccc1)C12CCC(O)C1CC(CCCCCCCCCCCO)=C2c1ccccc1` (stereo not drawn) [Compound 12e, Exo-5-(11-hydroxyundecyl)-4-phenyl-3a-(1-phenylvinyl)-1,2,3,3a,6,6a-hexahydropentalen-1-ol], the ΔTm at 50 µM on LRH-1 LBD was found to be 4.7 °C. On LRH-1, the response was half-maximal at 2000 nM (EC50) and the “Relative Efficacy” value is 0.87.

With `C=C(c1ccccc1)C12CCC(O)C1CC(CCCCOP(=O)([O-])OCC[N+](C)(C)C)=C2c1ccccc1` (stereo not drawn) [Compound 5g, 4-(6-exo-hydroxy-3-phenyl-3a-(1-phenylvinyl)-1,3a,4,5,6,6a-hexahydropentalen-2-yl)butyl (2-(trimethylammonio)ethyl) phosphate], on LRH-1 LBD, the ΔTm at 50 µM was less than 1 °C. Further, at LRH-1, the “EC50 (μM)” value is “cnc” and the “Relative Efficacy” value is recorded as 0.33.

Consider `C=C(c1ccccc1)C12CCC(O)C1CC(CCCCCCO)=C2c1ccccc1` (stereo not drawn) [Compound 7e, Exo-5-(6-hydroxyhexyl)-4-phenyl-3a-(1-phenylvinyl)-1,2,3,3a,6,6a-hexahydropentalen-1-ol], for which the ΔTm at 50 µM at LRH-1 LBD was 3.3 °C. Also, at LRH-1, it took 1000 nM to reach a half-maximal effect (EC50) and the “Relative Efficacy” value turned out to be 1.74.

For `C=C(c1ccccc1)[C@@]12CC[C@@H](O)C1CC(CCCCCC)=C2c1cc(O)ccc1F` (mixture of isomers) [Compound 16f, (Exo)-4-(2-fluoro-5-hydroxyphenyl)-5-hexyl-3a-(1-phenylvinyl)-1,2,3,3a,6,6a-hexahydropentalen-1-ol], the ΔTm at 50 µM at LRH-1 LBD was less than 1 °C. Also, at LRH-1, the EC50 was more than 30000 nM and the “Relative Efficacy” value is on record as 0.9.

For the compound `C=C(c1ccccc1)[C@@]12CC[C@@H](O)[C@@H]1CC(CCCCCCCO)=C2c1ccccc1` (relative stereo) [Compound 8e, Exo-5-(7-hydroxyheptyl)-4-phenyl-3a-(1-phenylvinyl)-1,2,3,3a,6,6a-hexahydropentalen-1-ol], the ΔTm at 50 µM at LRH-1 LBD was 3.7 °C. On LRH-1, a half-maximal effect (EC50) was put at 200 nM and the “Relative Efficacy” value is recorded as 1.26.

Take `C=C(c1ccccc1)[C@@]12CCC(O)C1CC(CCCCCCCCOP(=O)(OCC)OCC)=C2c1ccccc1` (stereo partly drawn) [Compound 53-exo, (Endo or Exo) diethyl (8-(6-hydroxy-3-phenyl-3a-(1-phenylvinyl)-1,3a,4,5,6,6a-hexahydropentalen-2-yl)octyl)phosphate]: on LRH-1 LBD, the “ΔTm (mean +/− SEM) (° C.)” value was “ns (Ns = Tm changes were less than 1° C.)”. Besides, on LRH-1, the “Relative Efficacy” value worked out at 0.37.

As for `C=C(c1ccccc1)[C@@]12CC[C@@H](OS(C)(=O)=O)C1CC(CCCCCC)=C2c1ccccc1` (stereo partly drawn) [Compound 30-exo, (Endo or Exo) 5-hexyl-4-phenyl-3a-(1-phenylvinyl)-1,2,3,3a,6,6a-hexahydropentalen-1-yl methanesulfonate], the ΔTm at 50 µM on LRH-1 LBD was 1.1 °C. Besides, at LRH-1, the half-maximal effective concentration (EC50) stood at 1000 nM and the “Relative Efficacy” value is 0.14.

`C=C(c1ccccc1)C12CC(O)C(CN)C1CC(CCCCCC)=C2c1ccccc1` (stereo not shown) [Compound 51, 3-(aminomethyl)-5-hexyl-6-phenyl-6a-(1-phenylvinyl)-1,2,3,3a,4,6a-hexahydropentalen-2-ol]: on LRH-1, the “EC50 (μM)” value was “cnc” and the “Relative Efficacy” value was found to be 0.65.

`C=C(c1ccccc1)[C@@]12CC[C@@H](O)C1CC(CCCCCC)=C2c1cc(O)ccc1C` (mixture of isomers) [Compound 17f, (Exo)-5-hexyl-4-(5-hydroxy-2-methylphenyl)-3a-(1-phenylvinyl)-1,2,3,3a,6,6a-hexahydropentalen-1-ol]: on LRH-1 LBD, the ΔTm at 50 µM is -1.9 °C.

Take `C=C(c1ccccc1F)[C@@]12CC[C@@H](O)C1CC(CCCCCC)=C2c1ccccc1` (mixture of isomers) [Compound 20, (Exo)-3a-(1-(2-fluorophenyl)vinyl)-5-hexyl-4-phenyl-1,2,3,3a,6,6a-hexahydropentalen-1-ol]: the ΔTm at 50 µM on LRH-1 LBD stood at 1.4 °C.

Regarding `C=C(c1ccccc1)[C@@]12CC[C@@H](OS(N)(=O)=O)C1CC(CCCCCC)=C2c1ccccc1` (stereo partly drawn) [Compound 28-exo, (Endo or Exo)-5-hexyl-4-phenyl-3a-(1-phenylvinyl)-1,2,3,3a,6,6a-hexahydropentalen-1-yl sulfamate], the ΔTm at 50 µM on LRH-1 LBD was 5.1 °C.

Take `C=C(c1ccccc1)[C@@]12CC[C@@H](O)[C@@H]1CC(CCCCCCCC(=O)OC[C@H](COP(=O)([O-])OCC[N+](C)(C)C)OC(=O)CC)=C2c1ccccc1` [Compound 14d, (2R)-3-((8-(6-(exo)-hydroxy-3-phenyl-3a-(1-phenylvinyl)-1,3a,4,5,6,6a-hexahydropentalen-2-yl)octanoyl)oxy)-2-(propionyloxy) propyl(2-(trimethylammonio)ethyl) phosphate]: on LRH-1, the EC50 turned out to be 17000 nM and the “Relative Efficacy” value is on record as 3.35.

As for `C=C(c1ccccc1)[C@@]12CC[C@@H](NC(N)=O)C1CC(CCCCCC)=C2c1ccccc1` (stereo partly drawn) [Compound 36-exo, 1-((endo or exo)-5-hexyl-4-phenyl-3a-(1-phenylvinyl)-1,2,3,3a, 6,6a-hexahydropentalen-1-yl) urea], the ΔTm at 50 µM on LRH-1 LBD is -1.4 °C.

As for `C=C(c1ccccc1C)[C@@]12CC[C@@H](O)C1CC(CCCCCC)=C2c1ccccc1` (mixture of isomers) [Compound 21, (Exo)-5-hexyl-4-phenyl-3a-(1-(o-tolyl)vinyl)-1,2,3,3a,6,6a-hexahydropentalen-1-ol], the ΔTm at 50 µM at LRH-1 LBD came out at 1.3 °C.

`C=C(c1ccccc1)[C@@]12CC[C@@H](OC(=O)NS(=O)(=O)O)C1CC(CCCCCC)=C2c1ccccc1` (stereo partly drawn) [Compound 40-exo, ((((endo or exo)-5-hexyl-4-phenyl-3a-(1-phenylvinyl)-1,2,3,3a, 6,6a-hexahydropentalen-1-yl)oxy)carbonyl)sulfamic acid]: at LRH-1, the EC50 is more than 30000 nM and the “Relative Efficacy” value was found to be 0.

Take `C=C(c1ccccc1)[C@@]12CC[C@H](OS(N)(=O)=O)C1CC(CCCCCC)=C2c1ccccc1` (stereo partly drawn) [Compound 28-endo, (Endo or Exo)-5-hexyl-4-phenyl-3a-(1-phenylvinyl)-1,2,3,3a,6,6a-hexahydropentalen-1-yl sulfamate]: on LRH-1 LBD, the ΔTm at 50 µM worked out at 8 °C.

Consider `C=C(c1ccccc1)C12CCC(O)C1CC(CCCCCCCC(=O)N1CCC(COP(=O)([O-])OCC[N+](C)(C)C)C1)=C2c1ccccc1` [Compound 13b, ((3R)-1-(8-(6-(exo)-hydroxy-3-phenyl-3a-(1-phenylvinyl)-1,3a,4,5,6,6a-hexahydropentalen-2-yl)octanoyl)pyrrolidin-3-yl)methyl (2-(trimethylammonio)ethyl)phosphate], for which, on LRH-1, a half-maximal effect (EC50) was put at 12000 nM and the “Relative Efficacy” value is recorded as 0.96.

As to `C=C(c1ccccc1)C12CCC(CN)C1CC(CCCCCC)=C2c1ccccc1` (stereo not drawn) [Compound 48-endo, (endo or exo) (5-hexyl-4-phenyl-3a-(1-phenylvinyl)-1,2,3,3a,6,6a-hexahydropentalen-1-10 yl)methanamine], the ΔTm at 50 µM at LRH-1 LBD is 0 °C.

Regarding `C=C(c1ccc(Br)cc1)[C@@]12CC[C@@H](O)C1CC(CCCCCC)=C2c1ccccc1` (mixture of isomers) [Compound 23a, (Exo)-3a-(1-(4-bromophenyl)vinyl)-5-hexyl-4-phenyl-1,2,3,3a,6,6a-hexahydropentalen-1-ol], on LRH-1, the “EC50 (μM)” value is given as “cnc” and the “Relative Efficacy” value is recorded as 0.06.

Take `C=C(c1ccccc1)[C@@]12CC[C@H](NC(C)=O)C1CC(CCCCCC)=C2c1ccccc1` (stereo partly drawn) [Compound 35-endo, N-((endo or exo)-5-hexyl-4-phenyl-3a-(1-phenylvinyl)-1,2,3,3a,6,6a-hexahydropentalen-1-yl) acetamide]: the ΔTm at 50 µM at LRH-1 LBD was found to be 0.4 °C.
